US12590134B2, “GLP-1 agonist polypeptide compound and salt thereof, synthesis method therefor and use thereof” (Sinopep-Allsino Biopharmaceutical Co., Ltd., priority 2020, dated 2026)
Like-named read-outs stand apart in the source and are kept apart here. Values belong to the compound of their own block, whether it stands above or below them.

What was measured:
[1] = biological target: human GLP-1R (Homo sapiens, UniProt P43220); assay: cAMP signal analysis of GLP-1R (GLP-1 receptor agonist activity); type: cell-based
Procedure: A wild human GLP-1R (NM_002062.5) was subjected to transient transfection and screened for two weeks by 600 μg/ml of hygromycin-B to obtain a cell line which was recombined and integrated into an FlpInCHO (Invitrogen) cell stable expression system. The culture condition of the FlpInCHO cell was as follows: 10% of heat-inactivated fetal calf serum was added to a DMEM culture solution, and the culture was performed in a 5% carbon dioxide cell incubator.
In the test, an LANCE cAMP detection kit was used for measuring the cAMP signal intensity.

[2] = Pharmacokinetic comparison experiment in rats, single subcutaneous injection; conditions: rat, in vivo, sc, 0.02 mg/kg
Procedure: A single subcutaneous injection was performed with a dose of 0.02 mg/kg; blood collection was performed by tail clipping, and the blood collection time points were: 0 h, 15 min, 30 min, 1 h, 2 h, 3 h, 4 h, 6 h, 8 h, 24 h, 48 h and 72 h. The compound concentration in plasma was determined by LC-MS/MS, all data were collected and exported by Unifi 1.9.3 software, and Excel software was used for data calculation. A non-compartmental model of DAS 3.0 software was used to calculate the pharmacokinetic parameters of rats after administration.

[3] = test system: db/db mice; assay: Glucose lowering experiment, random blood glucose of db/db mice after single subcutaneous injection; type: in vivo
Procedure: (§1) After DB/DB mice with high blood glucose were acclimated for 5-7 days, a non-fasting random blood glucose level was determined; after fasting for 12 h, a fasting blood glucose level was determined by a rapid blood glucose meter. […] Mice in each test drug group and each control group received single subcutaneous injection of each test drug or a control solution respectively, and the mice in the model control group received single subcutaneous injection of PBS buffer solution; and the experiment grouping and dosage setting conditions were shown in Table 1:
Blood glucose level: the blood was taken from the tail tip of the mice to measure the blood glucose level with a fast blood glucose meter and blood glucose test strips. […]
The glucose lowering effect of the test article was evaluated by BG (mmol/L) or AUC (mmol/L·min).
(§2) T test was used for comparison between two groups. One-way ANOVA was used for comparison among three or more groups. If there was a significant difference in F value, multiple comparisons should be performed after ANOVA analysis. All data analyses were performed with SPSS 17.0. If p<0.05, it was considered a significant difference.

[4] = Effect on random body weight of db/db mice after single subcutaneous injection; type: in vivo; parameters: unit not given here
Procedure: as §1
Body weight: after grouping the animals, the body weight was measured once a day at a fixed time period
as §2

Chain of human GLP-1R (P43220 24-463): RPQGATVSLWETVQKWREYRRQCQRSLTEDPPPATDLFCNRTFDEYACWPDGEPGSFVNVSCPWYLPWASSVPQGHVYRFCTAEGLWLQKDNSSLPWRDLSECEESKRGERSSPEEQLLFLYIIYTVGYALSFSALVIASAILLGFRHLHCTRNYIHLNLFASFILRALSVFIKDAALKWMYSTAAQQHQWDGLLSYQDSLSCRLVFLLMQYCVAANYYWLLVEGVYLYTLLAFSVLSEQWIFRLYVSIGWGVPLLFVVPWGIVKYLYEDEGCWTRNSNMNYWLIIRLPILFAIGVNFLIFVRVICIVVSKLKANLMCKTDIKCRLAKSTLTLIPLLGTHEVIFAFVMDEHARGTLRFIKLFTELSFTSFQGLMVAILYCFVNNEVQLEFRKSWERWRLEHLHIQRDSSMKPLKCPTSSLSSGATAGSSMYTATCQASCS

EC50 ([1]; CHO cell line stably expressing human GLP-1R, downstream cAMP signal, LANCE cAMP kit, read-out: GLP-1R EC50): 2.84 ± 0.513 nM | CL/F ([2]; male): 0.133 mL/min/kg | half-life ([2]; male): 15.4 h | AUC(0-inf) [2]: 2810 ng·h/mL | AUC(0-t) [2]: 2630 ng·h/mL | AUMC(0-t), Mean [2]: 73156.82 h * h * μg/L | AUMC(0-∞), Mean [2]: 89827.62 h * h * μg/L | Cmax [2]: 66.8 ng/mL | R_AUC(t/∞), Mean [2]: 93.53% | Tmax [2]: 24 h | Vd/F [2]: 0.17 L/kg
Compound: CC[C@H](C)[C@H](NC(=O)[C@H](Cc1ccccc1)NC(=O)[C@H](CCC(=O)O)NC(=O)[C@H](CCCCNC(=O)COCCOCCNC(=O)COCCOCCNC(=O)CC[C@H](NC(=O)CCCCCCCCCCCCCCCCC(=O)O)C(=O)O)NC(=O)[C@H](C)NC(=O)[C@H](C)NC(=O)[C@H](CCC(N)=O)NC(=O)[C@](C)(CC)NC(=O)[C@H](CCC(=O)O)NC(=O)[C@H](CC(C)C)NC(=O)[C@H](Cc1ccc(O)cc1)NC(=O)[C@H](CO)NC(=O)[C@H](CO)NC(=O)[C@@H](NC(=O)[C@H](CC(=O)O)NC(=O)[C@H](CO)NC(=O)[C@@H](NC(=O)[C@H](Cc1ccccc1)NC(=O)[C@@H](NC(=O)CNC(=O)[C@H](CCC(=O)O)NC(=O)[C@](C)(CC)NC(=O)[C@@H](N)Cc1c[nH]cn1)[C@@H](C)O)[C@@H](C)O)C(C)C)C(=O)N[C@@H](C)C(=O)N[C@@H](Cc1c[nH]c2ccccc12)C(=O)N[C@@H](CC(C)C)C(=O)N[C@H](C(=O)N[C@@H](CCCNC(=N)N)C(=O)NCC(=O)N[C@@H](CCCNC(=N)N)C(=O)NCC(=O)O)C(C)C [NO: 3]

Compound: CC[C@H](C)[C@H](NC(=O)[C@H](Cc1ccccc1)NC(=O)[C@H](CCC(=O)O)NC(=O)[C@H](CCCCNC(=O)COCCOCCNC(=O)COCCOCCNC(=O)CC[C@H](NC(=O)CCCCCCCCCCCCCCCCC(=O)O)C(=O)O)NC(=O)[C@H](C)NC(=O)[C@H](C)NC(=O)[C@H](CCC(N)=O)NC(=O)CNC(=O)[C@H](CCC(=O)O)NC(=O)[C@H](CC(C)C)NC(=O)[C@H](Cc1ccc(O)cc1)NC(=O)[C@H](CO)NC(=O)[C@H](CO)NC(=O)[C@@H](NC(=O)[C@H](CC(=O)O)NC(=O)[C@H](CO)NC(=O)[C@@H](NC(=O)[C@H](Cc1ccccc1)NC(=O)[C@@H](NC(=O)CNC(=O)[C@H](CCC(=O)O)NC(=O)[C@@H]1CCCN1C(=O)[C@@H](N)Cc1c[nH]cn1)[C@@H](C)O)[C@@H](C)O)C(C)C)C(=O)N[C@@H](C)C(=O)N[C@@H](Cc1c[nH]c2ccccc12)C(=O)N[C@@H](CC(C)C)C(=O)N[C@H](C(=O)N[C@@H](CCCNC(=N)N)C(=O)NCC(=O)N[C@@H](CCCNC(=N)N)C(=O)NCC(=O)O)C(C)C [NO: 18]
EC50 [1]: 3.12 ± 0.512 nM

Compound: CC[C@H](C)[C@H](NC(=O)[C@H](Cc1ccccc1)NC(=O)[C@H](CCC(=O)O)NC(=O)[C@H](CCCCNC(=O)COCCOCCNC(=O)COCCOCCNC(=O)CC[C@H](NC(=O)CCCCCCCCCCCCCCCCC(=O)O)C(=O)O)NC(=O)[C@H](C)NC(=O)[C@H](C)NC(=O)[C@H](CCC(N)=O)NC(=O)[C@@](C)(CC(F)(F)F)NC(=O)[C@H](CCC(=O)O)NC(=O)[C@H](CC(C)C)NC(=O)[C@H](Cc1ccc(O)cc1)NC(=O)[C@H](CO)NC(=O)[C@H](CO)NC(=O)[C@@H](NC(=O)[C@H](CC(=O)O)NC(=O)[C@H](CO)NC(=O)[C@@H](NC(=O)[C@H](Cc1ccccc1)NC(=O)[C@@H](NC(=O)CNC(=O)[C@H](CCC(=O)O)NC(=O)[C@@](C)(CC(F)(F)F)NC(=O)[C@@H](N)Cc1c[nH]cn1)[C@@H](C)O)[C@@H](C)O)C(C)C)C(=O)N[C@@H](C)C(=O)N[C@@H](Cc1c[nH]c2ccccc12)C(=O)N[C@@H](CC(C)C)C(=O)N[C@H](C(=O)N[C@@H](CCCNC(=N)N)C(=O)NCC(=O)N[C@@H](CCCNC(=N)N)C(=O)NCC(=O)O)C(C)C [NO: 19]
EC50 [1]: 0.791 ± 0.0635 nM

Compound: CC[C@H](C)[C@H](NC(=O)[C@H](Cc1ccccc1)NC(=O)[C@H](CCC(=O)O)NC(=O)[C@H](CCCCNC(=O)COCCOCCNC(=O)COCCOCCNC(=O)CC[C@H](NC(=O)CCCCCCCCCCCCCCCCC(=O)O)C(=O)O)NC(=O)[C@H](C)NC(=O)[C@H](C)NC(=O)[C@H](CCC(N)=O)NC(=O)CNC(=O)[C@H](CCC(=O)O)NC(=O)[C@H](CC(C)C)NC(=O)[C@H](Cc1ccc(O)cc1)NC(=O)[C@H](CO)NC(=O)[C@H](CO)NC(=O)[C@@H](NC(=O)[C@H](CC(=O)O)NC(=O)[C@H](CO)NC(=O)[C@@H](NC(=O)[C@H](Cc1ccccc1)NC(=O)[C@@H](NC(=O)CNC(=O)[C@H](CCC(=O)O)NC(=O)[C@@](C)(CC(F)(F)F)NC(=O)[C@@H](N)Cc1c[nH]cn1)[C@@H](C)O)[C@@H](C)O)C(C)C)C(=O)N[C@@H](C)C(=O)N[C@@H](Cc1c[nH]c2ccccc12)C(=O)N[C@@H](CC(C)C)C(=O)N[C@H](C(=O)N[C@@H](CCCNC(=N)N)C(=O)NCC(=O)N[C@@H](CCCNC(=N)N)C(=O)NCC(=O)O)C(C)C [NO: 20]
EC50 [1]: 0.693 ± 0.0557 nM

Compound: CC[C@H](C)[C@H](NC(=O)[C@H](Cc1ccccc1)NC(=O)[C@H](CCC(=O)O)NC(=O)[C@H](CCCCNC(=O)COCCOCCNC(=O)COCCOCCNC(=O)CC[C@H](NC(=O)CCCCCCCCCCCCCCCCC(=O)O)C(=O)O)NC(=O)[C@H](C)NC(=O)[C@H](C)NC(=O)[C@H](CCC(N)=O)NC(=O)[C@](C)(NC(=O)[C@H](CCC(=O)O)NC(=O)[C@H](CC(C)C)NC(=O)[C@H](Cc1ccc(O)cc1)NC(=O)[C@H](CO)NC(=O)[C@H](CO)NC(=O)[C@@H](NC(=O)[C@H](CC(=O)O)NC(=O)[C@H](CO)NC(=O)[C@@H](NC(=O)[C@H](Cc1ccccc1)NC(=O)[C@@H](NC(=O)CNC(=O)[C@H](CCC(=O)O)NC(=O)[C@](C)(NC(=O)[C@@H](N)Cc1c[nH]cn1)C(F)(F)C(F)(F)F)[C@@H](C)O)[C@@H](C)O)C(C)C)C(F)(F)C(F)(F)F)C(=O)N[C@@H](C)C(=O)N[C@@H](Cc1c[nH]c2ccccc12)C(=O)N[C@@H](CC(C)C)C(=O)N[C@H](C(=O)N[C@@H](CCCNC(=N)N)C(=O)NCC(=O)N[C@@H](CCCNC(=N)N)C(=O)NCC(=O)O)C(C)C [NO: 21]
EC50 [1]: 0.652 ± 0.0417 nM

Compound: CC[C@H](C)[C@H](NC(=O)[C@H](Cc1ccccc1)NC(=O)[C@H](CCC(=O)O)NC(=O)[C@H](CCCCNC(=O)COCCOCCNC(=O)COCCOCCNC(=O)CC[C@H](NC(=O)CCCCCCCCCCCCCCCCC(=O)O)C(=O)O)NC(=O)[C@H](C)NC(=O)[C@H](C)NC(=O)[C@H](CCC(N)=O)NC(=O)CNC(=O)[C@H](CCC(=O)O)NC(=O)[C@H](CC(C)C)NC(=O)[C@H](Cc1ccc(O)cc1)NC(=O)[C@H](CO)NC(=O)[C@H](CO)NC(=O)[C@@H](NC(=O)[C@H](CC(=O)O)NC(=O)[C@H](CO)NC(=O)[C@@H](NC(=O)[C@H](Cc1ccccc1)NC(=O)[C@@H](NC(=O)CNC(=O)[C@H](CCC(=O)O)NC(=O)[C@](C)(NC(=O)[C@@H](N)Cc1c[nH]cn1)C(F)(F)C(F)(F)F)[C@@H](C)O)[C@@H](C)O)C(C)C)C(=O)N[C@@H](C)C(=O)N[C@@H](Cc1c[nH]c2ccccc12)C(=O)N[C@@H](CC(C)C)C(=O)N[C@H](C(=O)N[C@@H](CCCNC(=N)N)C(=O)NCC(=O)N[C@@H](CCCNC(=N)N)C(=O)NCC(=O)O)C(C)C [NO: 22]
EC50 [1]: 0.63 ± 0.0519 nM

Compound: Semaglutide
Random blood glucose ([3]; 30 nmol/kg SC group, baseline at grouping before administration, X ± s, n = 8): 25.8 ± 3.9 mmol/L | Blood glucose at different time after administration, 0 h ([3]; 30 nmol/kg SC single dose, 0 h): 26.8 ± 3.2 mmol/L | Blood glucose at different time after administration, 2 h ([3]; 30 nmol/kg SC single dose, 2 h): 14.9 ± 4.1 mmol/L | Blood glucose at different time after administration, 4 h ([3]; 30 nmol/kg SC single dose, 4 h): 13.2 ± 3.2 mmol/L | Blood glucose at different time after administration, 6 h ([3]; 30 nmol/kg SC single dose, 6 h): 13.3 ± 3.7 mmol/L | Blood glucose at different time after administration, 10 h ([3]; 30 nmol/kg SC single dose, 10 h): 11.5 ± 3.7 mmol/L | Blood glucose at different time after administration, 24 h ([3]; 30 nmol/kg SC single dose, 24 h): 12.6 ± 5.6 mmol/L | Blood glucose at different time after administration, 36 h ([3]; 30 nmol/kg SC single dose, 36 h): 21.1 ± 4.1 mmol/L | Blood glucose at different time after administration, 48 h ([3]; 30 nmol/kg SC single dose, 48 h): 21.3 ± 5.6 mmol/L | Blood glucose at different time after administration, 56 h ([3]; 30 nmol/kg SC single dose, 56 h): 28.3 ± 4.8 mmol/L | Blood glucose at different time after administration, 72 h ([3]; 30 nmol/kg SC single dose, 72 h): 32.3 ± 1.9 mmol/L | Random body weight at different time after administration, Day 0 ([4]; 30 nmol/kg SC single dose, Day 0): 41.62 ± 1.56 | Random body weight at different time after administration, Day 1 ([4]; 30 nmol/kg SC single dose, Day 1): 38.86 ± 1.37 | Random body weight at different time after administration, Day 2 ([4]; 30 nmol/kg SC single dose, Day 2): 40.56 ± 1.51 | Random body weight at different time after administration, Day 3 ([4]; 30 nmol/kg SC single dose, Day 3): 41.03 ± 1.72 | Random body weight at different time after administration, Day −1 ([4]; 30 nmol/kg group, Day −1 (before administration)): 40.24 ± 1.44 | Random body weight at different time after administration, Day −2 ([4]; 30 nmol/kg group, Day −2 (before administration), X ± s, n = 8): 41.37 ± 1.64
